As a reminder, the Ki is a measure of affinity in units of concentration, obtained from inhibition or displacement.

For test [1], the target named is human recombinant 5-HT2A receptor (Homo sapiens (Human), UniProt P28223). Put plainly: 5-HT2A receptor binding inhibition test ([3H]-Ketanserin). To be noted: Jump-In HEK cell membrane. How it is done:
Test Example 1: 5-HT2A Receptor Binding Inhibition Test
(§1) (Each Experimental Condition)
Cell membrane: Jump-In HEK cell membrane (expressing human recombinant 5-HT2A receptor)
(§2) Assay buffer: Tris-HCl 50 mmol/L (pH 7.4) containing NaCl 120 mmol/L, MgCl2.6H2O 1 mmol/L, KCl 5 mmol/L, 0.1% BSA, and CaCl2 2 mmol/L
Radioactive ligand: [^3H]-Ketanserin around Kd value calculated by the following method
(§3) Non-specific ligand: Serotonin HCl
(§4) The Kd value was calculated when the lot of cell membrane was changed. In advance, 0.5 μL of a 1 mmol/L compound for non-specific binding calculation dissolved in DMSO or DMSO was dispensed into a microplate, and the cell membrane was diluted with an Assay buffer. The radioactive ligand solution was serially diluted and the count was confirmed with a liquid scintillator. Assay buffer containing diluted cell membrane was dispensed into a microplate at 50 μL/well. Then, the radioactive ligand solution was dispensed into a microplate at 50 μL/well, and the plate was sealed. It was allowed to stand at room temperature (25° C.) for 1.5 hours. During this period, 50 mmol/L Tris-HCl (pH 7.4) was dispensed into a GF/B UniFilter plate at 50 μL/well and allowed to stand at 4° C. for 1 hour or longer. After that, filtration was performed with Cell harvester (PerkinElmer). The radioactive ligand solution was dispensed into an empty well of the GF/B UniFilter plate at 10 μL/well. After the GF/B UniFilter plate was dried at room temperature, MicroScinti 20 was dispensed into the GF/B UniFilter plate at 50 μL/well, and the plate was sealed. The GF/B UniFilter plate was allowed to stand overnight at room temperature. The radioactivity of [^3H]-Ketanserin bound to the 5-HT2A receptor was measured using Microbeta2 (PerkinElmer) at a measurement time of 1 min/well. The Saturation curve was drawn from the measured value, and the Kd value was calculated from the slope of the Scatchard Plot.
(§5) (Binding Test of the Compound According to the Present Invention)
(§6) In advance, 0.5 μL of the compound solution dissolved in DMSO was dispensed into a microplate, and the cell membrane and the hot ligand were diluted with Assay buffer, respectively. Then, the Assay buffer containing the diluted cell membrane was dispensed into a microplate at 50 μL/well. Then, the radioactive ligand solution was dispensed into a microplate at 50 μL/well, and the plate was sealed. Then, it was allowed to stand at room temperature (25° C.) for 1.5 hours. During this period, 50 mmol/L Tris-HCl (pH 7.4) was dispensed into a GF/B UniFilter plate at 50 μL/well and allowed to stand at 4° C. for 1 hour or longer. After that, filtration was performed with Cell harvester (PerkinElmer). After the GF/B UniFilter plate was dried at room temperature, MicroScinti 20 was dispensed into the GF/B UniFilter plate at 50 μL/well, and the plate was sealed. The GF/B UniFilter plate was allowed to stand overnight at room temperature. The radioactivity of [^3H]-Ketanserin bound to the 5-HT2A receptor was measured using Microbeta2 (PerkinElmer) at a measurement time of 1 min/well. The non-specific binding was calculated from the radioactivity of [^3H]-Ketanserin in the presence of […] Serotonin HCl with the unlabeled ligand, and the total binding was calculated from the radioactivity of [^3H]-Ketanserin in the absence of the compound according to the present invention (Vehicle). Finally, the Ki value was calculated from the dose-response curve.
(§7) (The binding activity of the compound according to the present invention was calculated from the following binding inhibition rate (%).)
(§8) Inhibition rate (%)=[1−(c−a)/(b−a)]×100 • a; mean cpm of non-specific binding • b; mean cpm of total binding • c; cpm in the presence of the test compound

Test [2] has as its target human recombinant 5-HT2C receptor (Homo sapiens (Human), UniProt P28335). The experiment in a line: 5-HT2C receptor binding inhibition test ([3H]-Mesulergine). To be noted: Jump-In HEK cell membrane, [3H]-Mesulergine. Here is the method:
as §1
Cell membrane: Jump-In HEK cell membrane (expressing human recombinant 5-HT2C receptor)
as §2
Radioactive ligand: [^3H]-Mesulergine around Kd value calculated by the following method
as §3
as §4, with “[…]” for “4°”, “The radioactivity of [^3H]-Ketanserin bound to the 5-HT2A receptor was measured using Microbeta2 (PerkinElmer) at a measurement time of 1 min/well.” left out
as §5
as §6, with “37° C.” for “room temperature (25° C.)”, “2” for “1.5”, “The radioactivity of [^3H]-Ketanserin bound to the 5-HT2A receptor was measured using Microbeta2 (PerkinElmer) at a measurement time of 1 min/well.” left out, “[^3H]-Mesulergine” for “[^3H]-Ketanserin”
as §7, §8

[3] abbreviates: read-out: human serotonin 5-HT2A receptor binding activity, Ki value.
The mark [4] stands for this setting: read-out: human serotonin 5-HT2C receptor binding inhibitory activity, Ki value.

Read-outs that look alike come from different tables or passages of the source. A value given as a limit tells only on which side of the number the result lay.

Chain of human recombinant 5-HT2A receptor (P28223 whole entry): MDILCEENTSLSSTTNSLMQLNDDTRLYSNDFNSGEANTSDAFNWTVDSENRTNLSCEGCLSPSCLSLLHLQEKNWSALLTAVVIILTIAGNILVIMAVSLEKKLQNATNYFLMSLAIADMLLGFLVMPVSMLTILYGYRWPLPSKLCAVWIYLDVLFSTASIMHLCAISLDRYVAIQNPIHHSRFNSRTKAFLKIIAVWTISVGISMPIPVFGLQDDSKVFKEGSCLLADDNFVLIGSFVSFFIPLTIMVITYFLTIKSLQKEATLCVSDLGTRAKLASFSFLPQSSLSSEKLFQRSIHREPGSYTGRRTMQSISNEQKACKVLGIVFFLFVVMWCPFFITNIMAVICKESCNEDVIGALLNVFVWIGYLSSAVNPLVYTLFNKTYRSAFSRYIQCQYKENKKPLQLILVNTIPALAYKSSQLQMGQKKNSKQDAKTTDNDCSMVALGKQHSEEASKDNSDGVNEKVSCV
Chain of human recombinant 5-HT2C receptor (P28335 33-458): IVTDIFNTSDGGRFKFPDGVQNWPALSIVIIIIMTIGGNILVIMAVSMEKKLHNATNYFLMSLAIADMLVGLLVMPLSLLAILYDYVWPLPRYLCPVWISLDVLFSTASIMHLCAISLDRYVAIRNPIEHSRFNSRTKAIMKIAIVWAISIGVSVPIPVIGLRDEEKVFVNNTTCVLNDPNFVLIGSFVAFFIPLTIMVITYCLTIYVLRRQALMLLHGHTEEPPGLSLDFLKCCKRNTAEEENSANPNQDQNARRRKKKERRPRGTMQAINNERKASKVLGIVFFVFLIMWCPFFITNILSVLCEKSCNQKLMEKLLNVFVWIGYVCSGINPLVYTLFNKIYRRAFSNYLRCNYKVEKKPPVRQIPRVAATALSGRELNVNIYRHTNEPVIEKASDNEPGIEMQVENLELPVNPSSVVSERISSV

As for `CC(C)COc1ccc(CN(Cc2ccncn2)C(=O)NC2CCN(C)CC2)cc1` [Compound I-019], the Ki in test [1] (read-out: h-5-HT2A Ki) was 10 to 100 nM; in test [2] (read-out: h-5-HT2C Ki), 100 to 5000 nM.
For `CC(C)COc1ccc(CN(Cc2cnccn2)C(=O)NC2CCN(C)CC2)cc1` [Compound I-020], the Ki in test [1] (read-out: h-5-HT2A Ki) and in test [2] (read-out: h-5-HT2C Ki) was 10 to 100 nM in each case.
With `CCCOc1ccc(CN(Cc2ccc(F)cn2)C(=O)NC2CCN(C)CC2)cc1` [Compound I-021], the Ki in test [1] (read-out: h-5-HT2A Ki) and in test [2] (read-out: h-5-HT2C Ki) was under 10 nM in each case.
Take `Cc1cccnc1CN(Cc1ccc(OCC(C)C)cc1)C(=O)NC1CCN(C)CC1` [Compound I-023]: the values for the Ki in test [1] (read-out: h-5-HT2A Ki) and in test [2] (read-out: h-5-HT2C Ki) were under 10 nM and 10 to 100 nM, respectively.
Taken in the same sequence, the figures for `CC(C)COc1ccc(CN(Cc2ccco2)C(=O)NC2CCN(C)CC2)cc1` [Compound I-024] were under 10 nM and under 10 nM.
Consider `CC(C)COc1ccc(CN(Cc2nccs2)C(=O)NC2CCN(C)CC2)cc1` [Compound I-025], for which the Ki in test [1] (read-out: h-5-HT2A Ki) and in test [2] (read-out: h-5-HT2C Ki) was 10 to 100 nM throughout.
As for `CN1CCC(NC(=O)N(Cc2ccc3c(c2)OCO3)Cc2ccn(C)n2)CC1` [Compound I-026], the Ki lay in the range of 10 to 100 nM in test [1] (read-out: h-5-HT2A Ki) and 100 to 5000 nM in test [2] (read-out: h-5-HT2C Ki).
In the same order, the values of `CC(C)COc1ccc(CN(Cc2ccn(C)n2)C(=O)N[C@@H]2CCNCC2(F)F)cc1` [Compound I-027] are 100 to 5000 nM and 100 to 5000 nM.
As for `CN1CCC(NC(=O)N(Cc2ccc(C3CC3)cc2)Cc2ccn(C)n2)CC1` [Compound I-029], the Ki in test [1] (setting [3]) came out at 4.33 nM; in test [2] (setting [4]), 20.5 nM.
Taken in the same sequence, the figures for `Cc1ccc(CN(Cc2ccc(OCC(C)C)cc2)C(=O)NC2CCN(C)CC2)nc1` [Compound I-031] were 0.709 nM and 1.89 nM.
Turning to `CC(C)COc1ccc(CN(Cc2ccc(C#N)cn2)C(=O)NC2CCN(C)CC2)cc1` [Compound I-032], the Ki in test [1] (read-out: h-5-HT2A Ki) was 10 to 100 nM; in test [2] (read-out: h-5-HT2C Ki), 100 to 5000 nM.
For the compound `CC(C)COc1ccc(CN(Cc2cc3ccccc3o2)C(=O)NC2CCN(C)CC2)cc1` [Compound I-033], the results for the Ki in test [1] (setting [3]) and in test [2] (setting [4]) were 4.01 nM and 28.9 nM, respectively.
With `CC(C)COc1ccc(CN(Cc2cccs2)C(=O)NC2CCN(C)CC2)cc1` [Compound I-034], the Ki in test [1] (read-out: h-5-HT2A Ki) was under 10 nM; in test [2] (read-out: h-5-HT2C Ki), 10 to 100 nM.
In the same order, the values of `CC(C)COc1ccc(CN(Cc2cocn2)C(=O)NC2CCN(C)CC2)cc1` [Compound I-035] are under 10 nM and 10 to 100 nM.
In the same order, the values of `CC(C)COc1ccc(CN(Cc2ccn(C)n2)C(=O)CN2CCN(C)CC2)cc1` [Compound I-036] are 10 to 100 nM and 100 to 5000 nM.
For the compound `CC(C)COc1ccc(CN(Cc2ccn(C)n2)C(=O)N[C@H]2CCN(C)CC23CC3)cc1` [Compound I-037], the Ki in test [1] (setting [3]) stood at 4.7 nM; in test [2] (setting [4]) it was 2.11 nM.
As for `Cc1ccc(CN(Cc2ccn(C)n2)C(=O)NC2CCN(C)CC2)cc1` [Compound I-038], the Ki in test [1] (read-out: h-5-HT2A Ki) and in test [2] (read-out: h-5-HT2C Ki) was 10 to 100 nM throughout.
Consider `Cc1cc(CN(Cc2ccc(OCC(C)C)cc2)C(=O)NC2CCN(C)CC2)no1` [Compound I-039], for which the Ki in test [1] (read-out: h-5-HT2A Ki) and in test [2] (read-out: h-5-HT2C Ki) was 10 to 100 nM throughout.
In the case of `CC(C)COc1ccc(CN(Cc2ccn(C)c2)C(=O)NC2CCN(C)CC2)cc1` [Compound I-040], the figures for the inhibition constant (Ki) in test [1] (read-out: h-5-HT2A Ki) and in test [2] (read-out: h-5-HT2C Ki) were under 10 nM and 10 to 100 nM, respectively.
For the compound `CC(C)COc1ccc(CN(Cc2nn(C)cc2Cl)C(=O)NC2CCN(C)CC2)cc1` [Compound I-041], the Ki in test [1] (read-out: h-5-HT2A Ki) and in test [2] (read-out: h-5-HT2C Ki) was 10 to 100 nM throughout.
With `COc1ccc(CN(Cc2ccc(F)cn2)C(=O)NC2CCN(C)CC2)cc1` [Compound I-042], the values for the Ki in test [1] (read-out: h-5-HT2A Ki) and in test [2] (read-out: h-5-HT2C Ki) were under 10 nM and 10 to 100 nM, respectively.
For the compound `CN1CCC(NC(=O)N(Cc2ccc(OC(F)(F)F)cc2)Cc2ccn(C)n2)CC1` [Compound I-046], the Ki in test [1] (setting [3]) came to 3.09 nM; in test [2] (setting [4]), 14.5 nM.
In the case of `CC(C)Oc1ccc(CN(Cc2ccn(C)n2)C(=O)NC2CCN(C)CC2)cc1` [Compound I-047], the inhibitory constant (Ki) in test [1] (read-out: h-5-HT2A Ki) and in test [2] (read-out: h-5-HT2C Ki) was 10 to 100 nM in each case.
Consider `CC(C)COc1ccc(CN(Cc2ccn(C)n2)C(=O)N[C@H]2CCNC[C@H]2F)cc1` [Compound I-048], for which the Ki in test [1] (read-out: h-5-HT2A Ki) and in test [2] (read-out: h-5-HT2C Ki) was under 10 nM each time.
Take `CC(C)COc1ccc(CN(Cc2ccn(C)n2)C(=O)N[C@H]2CCN(C)C[C@H]2F)cc1` [Compound I-049]: the Ki in test [1] (read-out: h-5-HT2A Ki) and in test [2] (read-out: h-5-HT2C Ki) was under 10 nM in each case.
In the case of `CC(C)COc1ccc(CN(Cc2ccc(F)cn2)C(=O)N[C@H]2CCN(C)C[C@H]2F)cc1` [Compound I-050], the inhibition constant (Ki) in test [1] (read-out: h-5-HT2A Ki) and in test [2] (read-out: h-5-HT2C Ki) was under 10 nM in each case.
With `COc1ccc(CN(Cc2ccn(C)n2)C(=O)NC2CCN(C)CC2)nc1` [Compound I-051], the Ki in test [1] (read-out: h-5-HT2A Ki) and in test [2] (read-out: h-5-HT2C Ki) was 100 to 5000 nM throughout.
Consider `CC(C)COc1ccc(CN(Cc2ccn(C)n2)C(=O)N[C@H]2[C@@H]3CN(C)C[C@@H]32)cc1` [Compound I-058], for which the Ki in test [1] (read-out: h-5-HT2A Ki) and in test [2] (read-out: h-5-HT2C Ki) was 10 to 100 nM in each case.
Regarding `CC(C)COc1ccc(CN(Cc2ccn(C)n2)C(=O)NCC2CN(C)C2)cc1` [Compound I-059], the values for the Ki in test [1] (read-out: h-5-HT2A Ki) and in test [2] (read-out: h-5-HT2C Ki) were 10 to 100 nM and 100 to 5000 nM, respectively.
Taken in the same sequence, the figures for `CC(C)COc1ccc(CN(Cc2cnn(C)c2)C(=O)NC2CCN(C)CC2)cc1` [Compound I-060] were 10 to 100 nM and 10 to 100 nM.
Taken in the same sequence, the figures for `CC(C)COc1ccc(CN(Cc2ccn(C)n2)C(=O)NC2CC3CC2CN3C)cc1` (stereo not shown) [Compound I-061] were under 10 nM and 10 to 100 nM.
Taken in the same sequence, the figures for `COCCN1CCC(NC(=O)N(Cc2ccc(OCC(C)C)cc2)Cc2ccn(C)n2)CC1` [Compound I-063] were 10 to 100 nM and 10 to 100 nM.

The values are drawn from patent publication US20240083872A1, “CYCLIC AMINE DERIVATIVES HAVING SEROTONIN RECEPTOR BINDING ACTIVITY” (Shionogi & Co., Ltd., priority 2020, published 2024).
